According to patent publication US20250281439A1, “USE OF L-ASPARTIC ACID BETA-HYDROXAMATE (L-ABH) IN PREPARATION OF DRUG FOR DIABETIC RETINOPATHY (DR) OR RETINOPATHY OF PREMATURITY (ROP)” (Wenzhou Medical University, priority 2024, published 2025):
“Also recorded” adds a separate entry of the source.

Assays:
[1] = tested on: db/db mice; conditions: previous studies, cited from earlier work
[2] = tested on: db/db mice; test: OCT experiment (circular and linear scan; RNFL and total retinal thickness); format: in vivo; conditions: gavage 20 mg/kg/day, 18 weeks, vs db/db+water
Method: (§1) The 3-month-old db/db mice were randomly divided into two groups and subjected to intragastric gavage experiments: • group 1: gavage of water (denoted as db/db+water, 0.06 mL/10 g, 7 mice in total); • group 2: gavage of the L-ABH (denoted as db/db+L-ABH, 20 mg/kg/day, 10 mice in total).
(§2) Each group was gavaged 1 time per day according to the dosage for 18 weeks.
(§3) The 3-month-old wild-type mice were gavaged in the same manner as the group 1 (denoted as WT+water, 0.06 mL/10 g, 6 mice in total).
(2) After the gavage, an OCT experiment was conducted.
After the mice were anesthetized, tropicamide eye drops were used to dilate pupils, and after the mice entered deep anesthesia, ofloxacin was used to cover an ocular surface. The mice were placed on a mouse holder, their body position and the position knob were adjusted such that the lens was directly facing a center of mouse pupil. The position was fine-tuned from far to near such that an optic disc was located in a center of fundus image, and a focus was adjusted to make the image clear. A linear scan was conducted, where a linear scan position was moved to the vicinity of the optic disc, parameters and position were fine-tuned such that an OCT image passed through the optic disc and the optic disc was located in the middle, thus obtaining a cross-section of the retina from a temporal side to a nasal side. […]

[3] = tested on: db/db mice; test: Retinal digest preparation, PAS staining (endothelial cells, pericytes, acellular capillaries); format: in vivo; conditions: gavage 20 mg/kg/day, 18 weeks, vs db/db+water
Method: as §1, §2, §3
(4) After the gavage, the retinal digest preparation stretched preparation-PAS staining experiment was conducted.
After the mice were euthanized, eyeballs of the mice were removed and fixated with 4% PFA for 48 h, the retinas of the mice were separated and rinsed in ddH2O on a shaker at room temperature overnight, a fixative was removed, and the retinas were cut in half. The retinas were placed in 3% trypsin (prepared in 0.2 M Tris buffer, pH=7.4) and digested at 37° C. for 1 h. […] The nuclei were washed with running water, dehydrated routinely, transparentized with xylene, sealed with neutral gum, and then 6 to 8 fields of view were randomly selected for counting and observation under a microscope, and the number of pericytes and endothelial cells was calculated.

[4] = oral 20 mg/kg/d for three months (patent ZL 202110755406.0); 20 mg/kg/day; cited from earlier work
[5] = tested on: db/db mice; test: Retinal Brn3a immunofluorescence (RGC counting); format: in vivo; conditions: gavage 20 mg/kg/day, 18 weeks, vs db/db+water
Method: as §1, §2, §3
(3) After the gavage, retinal Brn3a immunofluorescence experiment was conducted.
After the mice were euthanized, periocular tissue of the mice was cut open, their eyeball of the mice was cut out and placed in a 5 mL centrifuge tube containing 4% PFA to allow fixation for 24 h, and the retinas were separated and cut into 4 petal shapes. The retinas were washed with PBS, permeabilized for 45 min, and blocked for 2 h. After removing a blocking solution, a Brn3a antibody was diluted (1:100) with PBS buffer containing 1% BSA, incubated overnight at 4° C., and then washed with the PBS. […] LSM 880 confocal laser microscope was used to take a full retinal mosaic, and then fluorescent images of the inner, middle, and outer 3 areas were intercepted on the 4 petals of the retina, that is, 12 areas of one retina were intercepted to allow fluorescence counting statistics. […]

[6] = tested on: db/db mice; test: Visual electrophysiological examination (dark and light adaptation) after 18 weeks of gavage; format: in vivo; conditions: gavage 20 mg/kg/day, 1 time per day, vs db/db+water
Method: as §1, §2, §3
(1) After the gavage, visual electrophysiological examinations were conducted on the mice in each group.
In FIGS. 2A-2H, (dark adapted 0.01, dark adapted 3.0, dark adapted 10.0 and dark adapted 3.0 oscillatory potentials) show 4 tests under visual electrophysiological dark adaptation. […] In FIGS. 3A-3D, (light adapted 3.0, and light adapted 30 Hz flicker) show 2 tests after visual electrophysiological light adaptation.

[7] = tested on: neonatal mice, hypoxia-induced retinopathy model; test: OIR experiment, hypoxia-induced retinopathy model (isolectin staining, area of retinal angiogenesis); format: in vivo; conditions: intraperitoneal 7 mg/kg/day, 1 time a day from day 12 after birth, 5 days, vs OIR+Saline
Method: In this example, the effect of L-ABH was verified in a hypoxia-induced model. The hypoxia-induced retinopathy model could be used as a model of ROP and a late-stage model of DR. OIR experiment: neonatal mice on the 7th day after birth and mother mice were randomly divided into 3 groups. Two groups of the neonatal mice and the mother mice were placed in an OIR oxygen chamber. The neonatal mice in group 1 were intraperitoneally injected with L-ABH (7 mg/kg/day) 1 time a day from the 12th day after birth for 5 consecutive days, recorded as OIR+L-ABH (ip), with a total of 5 mice. While the neonatal mice in group 2 were intraperitoneally injected with an equal amount of saline every day from the 12th day, recorded as OIR+Saline, with a total of 5 mice. After 5 day of hyperoxia, hypoxia-induced models were established in the group 1 and the group 2. The mice in group 3 were fed normally and intraperitoneally injected with an equal volume of saline every day, recorded as WT, with a total of 5 mice. After 5 day of hyperoxia, the neonatal and the mother mice were taken out from the oxygen chamber. The neonatal and the mother mice in the 3 groups were raised normally for 5 days, then the neonatal mice were sacrificed, subjected to stretched preparation and stained with isolectin, and then analyzed for the area of retinal angiogenesis. […]

[8] = Toxicity and tolerability of L-ABH on long-term oral administration; format: in vivo; conditions: no test described
Text: L-aspartic acid β-hydroxamate (L-ABH) is a reversible serine racemase (SR) inhibitor. […] However, there is no clear report on whether the L-ABH could be used for retinal neuroprotection as well as prevention and treatment of retinopathy.

N[C@@H](CC(=O)NO)C(=O)O [L-ABH, L-aspartic acid β-hydroxamate]
random blood glucose ([1]; animal model of type II diabetes): reduce random blood glucose | oral glucose tolerance test (OGTT) [1]: significantly improve oral glucose tolerance test (OGTT) | sensitivity of insulin tolerance test (ITT) [1]: increase sensitivity of insulin tolerance test (ITT) | degeneration of nerve fiber layer and medial nasal retina (RNFL thickness, total retinal thickness by OCT) [2]: protect the degeneration of a nerve fiber layer and a medial nasal retina | microvascular lesions (ratio of endothelial cells to pericytes, amount of acellular capillaries) [3]: significantly reduce the microvascular lesions | hepatotoxicity and nephrotoxicity [4]: not hepatotoxic or nephrotoxic; also recorded: without hepatotoxicity and nephrotoxicity | RGCs (Brn3a fluorescence counting) in inner, middle and outer retina [5]: significantly protect the RGCs in the middle and outer retina | functions of bipolar cells and amacrine cells in the retina (a-, b-wave, oscillatory potential, N1-P1 amplitudes) [6]: significantly improve the functions of bipolar cells and amacrine cells | hypoxia-induced retinal angiogenesis (neovascular area, avascular area) [7]: significantly reduce the hypoxia-induced retinal angiogenesis | nausea, vomiting, diarrhea, lactic acidosis ([8]; long-term use): does not cause nausea, vomiting, diarrhea, or lactic acidosis | irritating effect on gastrointestinal tract [8]: no irritating effect on gastrointestinal tract
